Peptide text beside a SMILES is read from it.

A short description of this data set: Accelerated stability study of blends: chemical compatibility of sweeteners with Compound 1B (assay potency). Type of data set: physicochemical. As to the method:
The chemical compatibility between these excipients and Compound 1B was evaluated through an accelerated stability study. The formulation samples were prepared as blends, then stored at 25° C./60% RH and 40° C./75% RH for up to four weeks.
Chemical stability of the blends was evaluated both in the presence and absence of high-intensity sweeteners, and the results are summarized in Table 2.

As for `CC1=CC(=O)[N-]S(=O)(=O)O1.[K+]` [Acesulfame-K], the “Chemical stability (compatibility with Compound 1B)” value (from here on “Chemical stability”) is reported as “Compatible”. For the molecule `O=C1NS(=O)(=O)c2ccccc21` [Saccharin], the “Chemical stability” value is listed as “Incompatible”.

Consider `COC(=O)[C@H](Cc1ccccc1)NC(=O)[C@@H](N)CC(=O)O` [Aspartame] (H-Asp-Phe-OMe), for which the “Chemical stability” value is “Compatible”. As for `OC[C@H]1O[C@H](O[C@]2(CCl)O[C@H](CCl)[C@@H](O)[C@@H]2O)[C@H](O)[C@@H](O)[C@H]1Cl` [Sucralose], the “Chemical stability” value is listed as “Compatible”.

For the origin of these results see patent US20220401450A1, “PEDIATRIC FORMULATIONS FOR TREATMENT OF CANCER” (CELGENE CORPORATION, priority 2019, published 2022).
